Laboratory results reported in patent US20090280549A1, “Method for Treating Body Fluid” (priority 2005, published 2009).

Experiments:
[1] = test system: THP-1 cells (human monocytic leukemia cells); experiment: ATX-S10•Na(II) uptake into THP-1 cells; format: cell-based; settings: for ATX-S10•Na(II) uptake: THP-1
Description: (§1) After labeling the compound represented by formula (II) above (hereinafter referred to as “ATX-S10•Na(II)”) with ^14C, the ATX-S10•Na(II) was dissolved in saline at a concentration of approximately 1×10^−3 mol/L, and the solution was filtered and sterilized with a 0.22 μm filter and then diluted with 1% FBS (fetal bovine serum)-containing RPMI1640 medium to prepare a 5×10^−5 mol/L ATX-S10•Na(II)-added solution.
(§2) As malignant lymphoma cells and leukemia cells, there were used THP-1 cells (human monocytic leukemia cells), EoL-1 cells (human eosinophilic leukemia cells), A3/KAW cells (human malignant lymphoma cells) and KG-1 cells (human acute myeloid leukemia cells). All of the cells were cultured using 10% FBS-containing RPMI1640 medium, with subculturing 1 to 2 times per week during the culturing. The THP-1 cells and EoL-1 cells were obtained from RIKEN BioResource Center, and the A3/KAW cells and KG-1 cells were obtained from Japan Health Sciences Foundation.
(§3) After adding 400 μL of the cell suspension and 100 μL of the ATX-S10•Na(II)-added solution to each well of a 48-well microplate and mixing, the mixtures were incubated with a CO2 incubator (37° C., 5% CO2) or allowed to stand in a refrigerating chamber (approximately 4° C.). The cells were separated immediately after addition (0 hours after addition) and 1 hour, 3 hours, 20 hours and 44 hours after addition, and ATX-S10•Na(II) uptake into the cells (including cell surface binding) was measured. The uptake with standing at 4° C. corresponds to cell surface binding, and the value of the uptake with incubation at 37° C. minus the uptake with standing at 4° C. is presumed to correspond to the substantial ATX-S 10 Na(II) uptake for each type of cell.
(§4) The cell separation and uptake measurement were performed in the following manner. Specifically, 1 mL of 1.5% BSA (bovine serum albumin)-containing PBS solution (ice-cold) was placed in a 1.5 mL tube. The suspension of cells to be separated was gently pipetted and mixed, and a 100 μL portion was taken and superposed onto the 1.5% BSA-containing PBS solution. For each well, the cell suspension (300 μL) was dispensed into three tubes (n=3). After centrifugation (3200 rpm, 10 minutes, 4° C.), the medium and 1.5% BSA-containing PBS solution were removed by suction, and then the precipitate was suspended in 100 μL of PBS(−), and 1 mL of PBS(−) was further added and mixed therewith. After additional centrifugation (3000 rpm, 10 minutes, 4° C.), the supernatant was removed by suction, and the bottom of the tube, where the precipitate is present, was cut out and transferred to a counting vial. Then 4.5 mL of liquid scintillator was added and mixed therewith, and the radioactivity was measured for 5 minutes using a liquid scintillation counter. The measured radioactivity was used to calculate the ATX-S10•Na(II) uptake (pmol/10^5 cells) into the cells.

[2] = test system: KG-1 cells (human acute myeloid leukemia cells); experiment: ATX-S10•Na(II) uptake into KG-1 cells; format: cell-based; settings: for ATX-S10•Na(II) uptake: KG-1
Description: as §1, §2, §3, §4

[3] = test system: THP-1 cells (activated macrophages) stimulated with PMA; experiment: ATX-S10•Na(II) uptake into THP-1 cells stimulated with PMA; format: cell-based, human
Description: as §1, §2, §3, §4
Uptake into THP-1 cells was measured also with stimulation of the cells for approximately 24 hours with PMA (2 nmol/L, 5 nmol/L or 15 nmol/L) and addition of ATX-S10•Na(II) to the cell suspension immediately after removal of the PMA. THP-1 cells differentiate into macrophages upon stimulation with PMA.

[4] = test system: erythrocytes; experiment: ATX-S10•Na(II) uptake into erythrocytes; format: cell-based, human
Description: as §1
(§5) Erythrocytes, platelets, neutrophils and lymphocytes were prepared from blood sampled from three healthy persons (designated as A, B and C).
(§6) The erythrocytes, neutrophils and lymphocytes were prepared from heparinized blood. […]
(§7) After adding 400 μL of the cell suspension and 100 μL of the ATX-S10•Na(II)-added solution to each well of a 48-well microplate and mixing, the mixtures were incubated with a CO2 incubator (37° C., 5% CO2) or allowed to stand in a refrigerating chamber (approximately 4° C.). The cells were separated immediately after addition (0 hours after addition) and 1 hour, 3 hours, 20 hours and 44 hours after addition, and ATX-S10•Na(II) uptake into the cells (including cell surface binding) was measured. […]
(§8) The cell separation and uptake measurement were performed in the following manner. […] Then 4.5 mL of liquid scintillator was added and mixed therewith, and the radioactivity was measured for 5 minutes using a liquid scintillation counter. […]

[5] = test system: platelets; experiment: ATX-S10•Na(II) uptake into platelets; format: cell-based, human
Description: as §1, §5
The platelets were prepared from citric acid-treated blood. […]
as §7, §8

[6] = test system: lymphocytes; experiment: ATX-S10•Na(II) uptake into lymphocytes; format: cell-based, human
Description: as §1, §5, §6, §7, §8

[7] = 0 hr, immediately after addition

## C=Cc1c(C)c2cc3nc(cc4[nH]c(cc5nc(cc1[nH]2)C(C)=C5CCC(=O)NC(CC(=O)[O-])C(=O)[O-])c(CCC(=O)NC(CC(=O)[O-])C(=O)[O-])c4C)C(C)(O)/C3=C\C=NO.[Na+].[Na+].[Na+].[Na+] (stereo not drawn) [ATX-S10•Na(II)]
[1]; [7]
  ATX-S10•Na(II) uptake: 0.56 pmol/10^5 cells
[1]; 1 hr, incubation at 37° C.
  ATX-S10•Na(II) uptake: 3.30 pmol/10^5 cells
[1]; 1 hr, standing at 4° C.
  ATX-S10•Na(II) uptake: 1.43 pmol/10^5 cells
[1]; 3 hr, incubation at 37° C.
  ATX-S10•Na(II) uptake: 4.73 pmol/10^5 cells
[1]; 3 hr, standing at 4° C.
  ATX-S10•Na(II) uptake: 2.88 pmol/10^5 cells
[1]; 20 hr, incubation at 37° C.
  ATX-S10•Na(II) uptake: 18.39 pmol/10^5 cells
[1]; 20 hr, standing at 4° C.
  ATX-S10•Na(II) uptake: 5.37 pmol/10^5 cells
[1]; 44 hr, incubation at 37° C.
  ATX-S10•Na(II) uptake: 33.21 pmol/10^5 cells
[1]; 44 hr, standing at 4° C.
  ATX-S10•Na(II) uptake: 1.94 pmol/10^5 cells
[1]; THP-1 cells versus A3/KAW, KG-1 and EoL-1 cells
  uptake compared between cell types: highest
[1]; THP-1 cells, course over incubation time
  substantial uptake of ATX-S10•Na(II) (uptake at 37° C. minus uptake at 4° C.): increased with incubation time
[2]; [7]
  ATX-S10•Na(II) uptake: 0.40 pmol/10^5 cells
[2]; 1 hr, incubation at 37° C.
  ATX-S10•Na(II) uptake: 2.34 pmol/10^5 cells
[2]; 1 hr, standing at 4° C.
  ATX-S10•Na(II) uptake: 1.36 pmol/10^5 cells
[2]; 3 hr, incubation at 37° C.
  ATX-S10•Na(II) uptake: 2.59 pmol/10^5 cells
[2]; 3 hr, standing at 4° C.
  ATX-S10•Na(II) uptake: 1.50 pmol/10^5 cells
[2]; 20 hr, incubation at 37° C.
  ATX-S10•Na(II) uptake: 6.85 pmol/10^5 cells
[2]; 20 hr, standing at 4° C.
  ATX-S10•Na(II) uptake: 2.87 pmol/10^5 cells
[2]; 44 hr, incubation at 37° C.
  ATX-S10•Na(II) uptake: 10.97 pmol/10^5 cells
[2]; 44 hr, standing at 4° C.
  ATX-S10•Na(II) uptake: 0.96 pmol/10^5 cells
[2]; KG-1 cells, course over incubation time
  substantial uptake of ATX-S10•Na(II) (uptake at 37° C. minus uptake at 4° C.): increased with incubation time
[3]; THP-1 cells (activated macrophages) stimulated with PMA for 24 hours
  uptake compared with unstimulated cells: higher than without stimulation with PMA
[3]; THP-1 stimulated with 2 nmol/L PMA, 0 hr, immediately after addition
  ATX-S10•Na(II) uptake: 1.66 pmol/10^5 cells
[3]; THP-1 stimulated with 2 nmol/L PMA, 3 hr, incubation at 37° C.
  ATX-S10•Na(II) uptake: 6.66 pmol/10^5 cells
[3]; THP-1 stimulated with 2 nmol/L PMA, 3 hr, standing at 4° C.
  ATX-S10•Na(II) uptake: 7.05 pmol/10^5 cells
[3]; THP-1 stimulated with 2 nmol/L PMA, 20 hr, incubation at 37° C.
  ATX-S10•Na(II) uptake: 11.75 pmol/10^5 cells
[3]; THP-1 stimulated with 2 nmol/L PMA, 20 hr, standing at 4° C.
  ATX-S10•Na(II) uptake: 5.32 pmol/10^5 cells
[3]; THP-1 stimulated with 5 nmol/L PMA, 0 hr, immediately after addition
  ATX-S10•Na(II) uptake: 2.07 pmol/10^5 cells
[3]; THP-1 stimulated with 5 nmol/L PMA, 3 hr, incubation at 37° C.
  ATX-S10•Na(II) uptake: 11.37 pmol/10^5 cells
[3]; THP-1 stimulated with 5 nmol/L PMA, 3 hr, standing at 4° C.
  ATX-S10•Na(II) uptake: 8.48 pmol/10^5 cells
[3]; THP-1 stimulated with 5 nmol/L PMA, 20 hr, incubation at 37° C.
  ATX-S10•Na(II) uptake: 16.06 pmol/10^5 cells
[3]; THP-1 stimulated with 5 nmol/L PMA, 20 hr, standing at 4° C.
  ATX-S10•Na(II) uptake: 7.53 pmol/10^5 cells
[3]; THP-1 stimulated with 15 nmol/L PMA, 0 hr, immediately after addition
  ATX-S10•Na(II) uptake: 2.93 pmol/10^5 cells
[3]; THP-1 stimulated with 15 nmol/L PMA, 3 hr, incubation at 37° C.
  ATX-S10•Na(II) uptake: 18.31 pmol/10^5 cells
[3]; THP-1 stimulated with 15 nmol/L PMA, 3 hr, standing at 4° C.
  ATX-S10•Na(II) uptake: 12.74 pmol/10^5 cells
[3]; THP-1 stimulated with 15 nmol/L PMA, 20 hr, incubation at 37° C.
  ATX-S10•Na(II) uptake: 19.95 pmol/10^5 cells
[3]; THP-1 stimulated with 15 nmol/L PMA, 20 hr, standing at 4° C.
  ATX-S10•Na(II) uptake: 9.13 pmol/10^5 cells
[4]
  ATX-S10•Na(II) uptake: Almost no ATX-S10•Na(II) was taken up
[5]; after incubation at 37° C. for 44 hours
  Aggregation of platelets: Aggregation of platelets was observed
[5]; platelets
  ATX-S10•Na(II) uptake: Almost no ATX-S10•Na(II) was taken up
[6]; lymphocytes versus EoL-1, THP-1 and A3/KAW cells
  uptake compared between cell types: higher than EoL-1 cells, although not as high as THP-1 cells or A3/KAW cells
[6]; lymphocytes, course over incubation time
  substantial uptake of ATX-S10•Na(II) (uptake at 37° C. minus uptake at 4° C.): increased with incubation time
